Assay results reported in US20150140121A1, “Compositions and Methods for Tight Junction Modulation” (Lankenau Institute for Medical Research, priority 2012, published 2015).
Read-outs that look alike come from different tables or passages of the source.

Columns and labels:
[1] = system: epithelial TJs; conditions: arginine; Rhoads et al. 2009; cited from earlier work
[2] = system: TJ; conditions: glutamine; Seth et al. 2004; cited from earlier work
[3] = system: claudin-1; conditions: cited from earlier work
[4] = system: human colonic (CACO-2) epithelial cell layer; conditions: cited from earlier work
[5] = system: human colonic (CACO-2) epithelial cell layer; conditions: cited from earlier work; remark: listed apart in the source
[6] = system: Claudin-5; assay: Claudin-5 expression in LLC-PK1 cell layers (Western immunoblot); format: cell-based, porcine; conditions: for Claudin-5: LLC-PK1 cell layers, given as Incr (increase); for expression of Claudin 5: LLC-PK1 cells
From the text: (§1) Zinc has long been known to be efficacious in the treatment of certain types of diarrhea. It has been determined that zinc can render certain TJ barriers less leaky. Zinc effects can vary depending upon the specific type of epithelial layer.

[7] = system: Claudin-4; assay: Claudin-4 expression in LLC-PK1 cell layers (Western immunoblot); format: cell-based, porcine; conditions: for Claudin-4: LLC-PK1 cell layers, given as Incr (increase)
From the text: as §1

[8] = system: human colonic (HCT-8) epithelial cell layers; conditions: indole 1 mM; HCT-8 cell layers; Bansal et al. 2010; cited from earlier work
[9] = system: Claudin-1; assay: Claudin-1 expression in LLC-PK1 cell layers (Western immunoblot); format: cell-based, porcine
From the text: as §1

[10] = system: Claudin-2; assay: Claudin-2 expression in LLC-PK1 cell layers (Western immunoblot); format: cell-based, porcine; conditions: for Claudin-2: LLC-PK1 cell layers, given as Decr (decrease)
From the text: as §1

[11] = system: Occludin; assay: Occludin expression in LLC-PK1 cell layers (Western immunoblot); format: cell-based, porcine
From the text: as §1

[12] = system: Claudin-7; assay: Claudin-7 expression in LLC-PK1 cell layers; format: cell-based, porcine
[13] = system: Claudin-3; assay: Claudin-3 expression in LLC-PK1 cell layers (Western immunoblot); format: cell-based, porcine; conditions: for Claudin-3: LLC-PK1 cell layers, given as Decr (decrease)
From the text: as §1

[14] = system: Tricellulin; assay: Tricellulin expression in LLC-PK1 cell layers (Western immunoblot); format: cell-based, porcine; conditions: for Tricellulin: LLC-PK1 cell layers, given as Decr (decrease)
From the text: as §1

[15] = system: claudin-2; conditions: indole 1 mM; HCT-8 cell layers; Bansal et al. 2010; cited from earlier work
[16] = system: LLC-PK1 cell layers; assay: Transepithelial electrical resistance (Rt) across LLC-PK1 cell layers; format: cell-based, porcine; conditions: for transepithelial resistance: LLC-PK1 cell layers
Procedure: (§2) LLC-PK1 is a porcine cell line model of the kidney proximal tubule.
The effect of zinc and/or quercetin on the electrical resistance across LLC-PK1 renal epithelial cell layers was tested. Briefly, LLC-PK1 renal epithelial cell layers were treated with either 100 μM zinc alone, 400 μM quercetin alone; or both agents together. The stimulation of transepithelial electrical resistance (Rt) by maximally effective concentrations of zinc alone and quercetin alone was in the range of 50-60% of control levels. […] The results shown in FIG. 8 represent the mean+/− standard error for 12 cell layers. P values are for one-sided Student's t tests.

[17] = system: occludin; conditions: cited from earlier work
[18] = system: ZO-2; conditions: quercetin; independent study, Suzuki et al. 2009; cited from earlier work
[19] = system: claudin 7; conditions: quercetin 0.2 mM; CACO-2; Amasheh et al. 2008; cited from earlier work
[20] = system: colonic (CACO-2) epithelial cell layers; conditions: quercetin treatment; Suzuki et al. 2009; cited from earlier work
[21] = system: claudin-4; conditions: cited from earlier work
[22] = system: LLC-PK1 cell layers; assay: Mannitol flux / leak across LLC-PK1 cell layers; format: cell-based, porcine; conditions: for Mannitol Flux / mannitol leaking across the cell layer: LLC-PK1 cell layers; for Mannitol Flux: given as Decr (decrease)
Procedure: FIG. 7A provides a graph of transepithelial resistance of untreated (control) LLC-PK1 cell layers or LLC-PK1 cell layers treated with 50 μM, 100 μM, or 200 μM zinc. FIG. 7B provides a graph of ^14C-D-mannitol leak across untreated (control) LLC-PK1 cell layers or LLC-PK1 cell layers treated with 50 μM, 100 μM, or 200 μM zinc.
as §2

[23] = system: claudin 3; conditions: quercetin 0.2 mM; CACO-2; Amasheh et al. 2008; cited from earlier work
[24] = system: occludin; conditions: zinc supplementation; small intestine; Zhang et al. 2009; cited from earlier work
[25] = system: claudin 2; assay: Claudin 2 amount in colonic (CACO-2) epithelial cell layers; format: cell-based, human; conditions: 50 or 100 micromolar zinc; CACO-2 cell layer
From the text: (§3) When the effects of 50 or 100 micromolar zinc were examined on the TJ permeability of a human colonic (CACO-2) epithelial cell layer, the results were quite different. Here the Rt increased as with the renal epithelium. However, there was an increase—as opposed to a decrease—in a D-mannitol diffusion. In other words, zinc decreased leak to salts but increased leak to small nonelectrolytes. […] Even though the overall cellular content of the tight junction protein(s) may not be affected, zinc may cause a ‘shift’ in certain tight junction protein (e.g., certain claudins) out of the tight junctional complex and into the cell's cytoplasm.

[26] = system: small intestine; conditions: zinc supplementation, Zhang et al. 2009; cited from earlier work
[27] = system: human colonic (CACO-2) epithelial cell layer; assay: Transepithelial electrical resistance (Rt) across CACO-2 cell layers; format: cell-based; conditions: 50 or 100 micromolar zinc; CACO-2 cell layer
From the text: as §3

[28] = system: claudin 5; assay: Claudin 5 amount in colonic (CACO-2) epithelial cell layers; format: cell-based, human; conditions: 50 or 100 micromolar zinc; CACO-2 cell layer
From the text: as §3

[29] = system: claudin-1; assay: Claudin 1 amount / localization in colonic (CACO-2) epithelial cell layers; format: cell-based, human; conditions: 50 or 100 micromolar zinc; CACO-2 cell layer
From the text: as §3

[30] = system: claudin-4; assay: Claudin 4 amount in colonic (CACO-2) epithelial cell layers; format: cell-based, human; conditions: 50 or 100 micromolar zinc; CACO-2 cell layer
From the text: as §3

[31] = system: ZO-1; conditions: zinc supplementation; small intestine; Zhang et al. 2009; cited from earlier work
[32] = system: tricellulin; assay: Tricellulin amount in CACO-2 cell layers; format: cell-based, human; conditions: 50 or 100 micromolar zinc; CACO-2 cell layer
From the text: as §3

[33] = system: occludin; assay: Occludin amount / localization in colonic (CACO-2) epithelial cell layers; format: cell-based, human; conditions: 50 or 100 micromolar zinc; CACO-2 cell layer
From the text: as §3

[34] = system: human colonic (CACO-2) epithelial cell layer; assay: D-mannitol diffusion across CACO-2 cell layers; format: cell-based; conditions: 50 or 100 micromolar zinc; CACO-2 cell layer
From the text: as §3

[35] = system: claudin 3; assay: Claudin 3 amount in colonic (CACO-2) epithelial cell layers; format: cell-based, human; conditions: 50 or 100 micromolar zinc; CACO-2 cell layer
From the text: as §3

[36] = system: claudin 7; assay: Claudin 7 amount in colonic (CACO-2) epithelial cell layers; format: cell-based, human; conditions: 50 or 100 micromolar zinc; CACO-2 cell layer
From the text: as §3

[37] = system: ZO-1; conditions: zinc; colonic (CACO-2) epithelia; Finamore et al. 2008; cited from earlier work
[38] = system: ZO-1; conditions: selenium (e.g., 100 ng/ml); Martin et al. 2007; cited from earlier work
[39] = system: mammary epithelial barrier; conditions: selenium at supplemental concentration (e.g., 100 ng/ml); Martin et al. 2007; cited from earlier work
[40] = system: occludin; conditions: selenium (e.g., 100 ng/ml); Martin et al. 2007; cited from earlier work
[41] = system: mammary epithelial barrier; conditions: selenium (e.g., 100 ng/ml), Martin et al. 2007; cited from earlier work
[42] = glutamine, CACO-2 epithelial cell layers, Li et al. 2009
[43] = quercetin 0.2 mM, CACO-2, Amasheh et al. 2008
[44] = quercetin, independent study, Suzuki et al. 2009
[45] = zinc at 50 and 100 micromolar, LLC-PK1 epithelium
[46] = zinc, LLC-PK1 renal epithelial model

N=C(N)NCCC[C@H](N)C(=O)O [arginine]
barrier-enhancing effects (compared with glutamine) [1]: very similar barrier-enhancing effects

NC(=O)CC[C@H](N)C(=O)O [glutamine]
toxicity-related increases in TJ leakiness [2]: reverse
claudin-1 expression [3, 42]: increasing
Rt [4, 42]: increased
mannitol diffusion [5, 42]: decreased

c1ccc2[nH]ccc2c1 [indole]
Claudin-5 ([6]; 1 mM Indole): Incr 150%
expression of Claudin 5 ([6]; indole (1 mM, FIG. 5B)): upregulated
Claudin-4 ([7]; 1 mM Indole): Incr 100%
expression of Claudin 4 ([7]; indole (1 mM, FIG. 5A), LLC-PK1 cells): upregulated
Rt [8]: increased
Claudin-1 ([9]; 1 mM Indole, LLC-PK1 cell layers, given as Decr (decrease)): Decr 30%
effect on claudin 1 ([9]; indole, LLC-PK1 cells): less than 50%
Claudin-2 ([10]; 1 mM Indole): Decr 40%
effect on claudin 2 ([10]; indole, LLC-PK1 cells): less than 50%
effect on occludin ([11]; indole, LLC-PK1 cells): less than 50%
effect on claudin 7 ([12]; indole, LLC-PK1 cells): less than 50%
Claudin-3 ([13]; 1 mM Indole): Decr 20%
effect on claudin 3 ([13]; indole, LLC-PK1 cells): less than 50%
Tricellulin ([14]; 1 mM Indole): Decr 10%
effect on tricellulin ([14]; indole, LLC-PK1 cells): less than 50%
abundance of claudin-2 [15]: decreased
transepithelial resistance ([16]; 1 mM Indole, given as Incr (increase)): Incr 30%
transepithelial resistance ([16]; indole (0.1, 1, 2 mM, FIG. 6)): increased

O=c1c(O)c(-c2ccc(O)c(O)c2)oc2cc(O)cc(O)c12 [quercetin]
Claudin-5 ([6]; 400 μM Quercetin): Incr 100%
expression of Claudin 5 ([6]; 400 μM quercetin, FIG. 3B): upregulated
amount of occludin [17, 43]: unaffected
cellular redistribution of occludin [17, 44]: cellular redistribution
cellular redistribution of ZO-2 [18]: cellular redistribution
amount of claudin 7 [19]: unaffected
Claudin-4 ([7]; 400 μM Quercetin): Incr 75%
permeability of the electrically charged dye Lucifer yellow [20]: decreased
amount of claudin 1 [3, 43]: unaffected
cellular redistribution of claudin-1 [3, 44]: cellular redistribution
Claudin-2 ([10]; 400 μM Quercetin): Decr 75%
expression of Claudin 2 ([10]; 400 μM quercetin, LLC-PK1 cells, FIG. 3A): downregulated
TJ permeability to Na+ and Cl− ions [4, 43]: decreased
Rt ([4]; quercetin 0.2 mM, colonic (CACO-2) epithelial cell layers, Amasheh et al. 2008): increased
Claudin-7 ([12]; 400 μM Quercetin, LLC-PK1 cell layers, given as Incr (increase)): Incr 200%
TJ content of claudin-4 [21, 43]: dramatic increase
increase in claudin-4 [21, 44]: confirmed
Claudin-3 ([13]; 400 μM Quercetin): Decr 30%
TJ permeability to the nonelectrolyte D-mannitol [5, 43]: no significant effect
Tricellulin ([14]; 400 μM Quercetin): Decr 15%
Mannitol Flux ([22]; 400 μM Quercetin): Decr > 20%
mannitol leaking across the cell layer ([22]; quercetin (100, 200, 400 μM, FIG. 4B)): decrease
transepithelial resistance ([16]; 400 μM Quercetin, given as Incr (increase)): Incr > 20%
transepithelial resistance ([16]; quercetin (100, 200, 400 μM, FIG. 4A)): increased
amount of claudin 3 [23]: unaffected

[Zn] [zinc]
levels of occludin [24]: increased
claudin 2 amount [25]: significant decreases
leakage of the small non-electrolyte lactulose [26]: decreasing
Rt [27]: increased
claudin 5 amount [28]: no changes
claudin 5 expression by Western immunoblot [6, 45]: none had exhibited increased or decreased expression
claudin 1 amount [29]: no changes
claudin 4 amount [30]: no changes
levels of ZO-1 [31]: increased
localization of occludin ([17]; zinc, colonic (CACO-2) epithelia, Finamore et al. 2008): regulate the localization
tricellulin amount [32]: no changes
claudin 4 expression by Western immunoblot [7, 45]: none had exhibited increased or decreased expression
shift of claudin 4 out of the tight junctional complex into the cytoplasm [7, 46]: has been observed
claudin 1 expression by Western immunoblot [9, 45]: none had exhibited increased or decreased expression
occludin amount [33]: no changes
claudin 2 expression by Western immunoblot [10, 45]: none had exhibited increased or decreased expression
shift of claudin 2 out of the tight junctional complex into the cytoplasm [10, 46]: has been observed
occludin expression by Western immunoblot [11, 45]: none had exhibited increased or decreased expression
claudin 3 expression by Western immunoblot [13, 45]: none had exhibited increased or decreased expression
D-mannitol diffusion [34]: increase
tricellulin expression by Western immunoblot [14, 45]: none had exhibited increased or decreased expression
claudin 3 amount [35]: no changes
claudin 7 amount [36]: significant decreases
Mannitol Flux ([22]; 100 μM Zn): Decr > 20%
mannitol leaking across the cell layer ([22]; zinc (50, 100, 200 μM, FIG. 7B)): decrease
transepithelial diffusion of D-mannitol [22, 45]: decreased
localization of ZO-1 [37]: regulate the localization
transepithelial resistance ([16]; 100 μM Zn, given as Incr (increase)): Incr > 40%
transepithelial resistance ([16]; zinc (50, 100, 200 μM, FIG. 7A)): increased
transepithelial electrical resistance (Rt) ([16]; zinc at 50 and 100 micromolar, renal proximal tubular-like (LLC-PK1) epithelium): increased

[Se] [Selenium]
cellular redistribution of ZO-1 from cytosolic to junctional regions [38]: cellular redistribution
Rt [39]: increased
cellular redistribution of occludin from cytosolic to junctional regions [40]: cellular redistribution
paracellular invasion of cancer cells [41]: decreased
